Data: PubChem BioAssay AID330 (DTP/NCI, 2004)
Several values for one entry are separate records, joined by “and”; a condition that tells them apart may be missing. Equal values may be shown once. Inconclusive results and toxic doses are left out. How the source made its calls: active means survival T/C of 150% or more; inactive means T/C below 125% in these data.

Test system: P388 leukemia ip, CD2F1 mice, survival T/C
Experiment: NCI In Vivo Anticancer Drug Screen. Data for tumor model P388 Leukemia (intraperitoneal) in CD2F1 (CDF1) mice
Details: endpoint: median survival time, higher = longer survival
In short: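 Mice carrying the transplanted tumor received test compound or vehicle. Survival was recorded in each group, and the value is the treated-group measurement divided by that of the vehicle-treated control group.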

[1] = dose: 12.5 mg/kg/injection, schedule: Q01DX009 (ip), vehicle: saline with Tween-80
[2] = dose: 25.0 mg/kg/injection, schedule: Q01DX009 (ip), vehicle: saline with Tween-80
[3] = dose: 100.0 mg/kg/injection, schedule: Q01DX009 (ip), vehicle: saline
[4] = dose: 50.0 mg/kg/injection, schedule: Q01DX009 (ip), vehicle: saline with Tween-80
[5] = dose: 100.0 mg/kg/injection, schedule: Q01DX009 (ip), vehicle: saline with Tween-80
[6] = dose: 200.0 mg/kg/injection, schedule: Q01DX009 (ip), vehicle: saline with Tween-80
[7] = dose: 50.0 mg/kg/injection, schedule: Q04DX003 (ip), vehicle: saline with Tween-80
[8] = dose: 25.0 mg/kg/injection, schedule: Q01DX009 (ip), vehicle: water
[9] = dose: 100.0 mg/kg/injection, schedule: Q04DX002 (ip), vehicle: saline with Tween-80
[10] = dose: 200.0 mg/kg/injection, schedule: Q04DX002 (ip), vehicle: saline with Tween-80
[11] = dose: 400.0 mg/kg/injection, schedule: Q04DX002 (ip), vehicle: saline with Tween-80

Measured: T/C

CCC(c1ccc(OC)cc1)C(NCC(=O)N/N=C/c1ccc(N(C)C)cc1)c1ccc(OC)cc1 (centres undefined)
inactive: dose: 100.0 mg/kg/injection, schedule: Q01DX001 (ip), vehicle: saline with Tween-80 100 % of control | dose: 200.0 mg/kg/injection, schedule: Q01DX001 (ip), vehicle: saline with Tween-80 100 % of control | dose: 400.0 mg/kg/injection, schedule: Q01DX001 (ip), vehicle: saline with Tween-80 99 % of control

CCCCCC(C1SC(=S)NC1=O)C1SC(=S)NC1=O (centres undefined)
inactive: dose: 50.0 mg/kg/injection, schedule: Q01DX005 (ip), vehicle: saline with Tween-80 90 % of control | dose: 100.0 mg/kg/injection, schedule: Q01DX005 (ip), vehicle: saline with Tween-80 106 % of control

CC(=O)NC(/C=C/c1ccc(Cl)c(Cl)c1)c1cccc(O)c(=O)c1 (centres undefined)
inactive: dose: 6.25 mg/kg/injection, schedule: Q01DX009 (ip), vehicle: saline with Tween-80 100 % of control | [1] 99 % of control | [2] 113 % of control | dose: 25.0 mg/kg/injection, schedule: Q01DX009 (ip), vehicle: saline 119 % of control | dose: 50.0 mg/kg/injection, schedule: Q01DX009 (ip), vehicle: saline 124 % of control | [3] 98 % of control

CC1(C)OC1C1CC(C2CCC3(C)C4=CCC5C(C)(C)C(=O)CCC5(C)C4CCC23C)C(O)O1 (centres undefined)
inactive: dose: 1.5 mg/kg/injection, schedule: Q01DX009 (ip), vehicle: Klucel (hydroxypropylcellulose) (HPC) 90 % of control | dose: 3.0 mg/kg/injection, schedule: Q01DX009 (ip), vehicle: Klucel (hydroxypropylcellulose) (HPC) 94 % of control | dose: 6.0 mg/kg/injection, schedule: Q01DX009 (ip), vehicle: Klucel (hydroxypropylcellulose) (HPC) 103 % of control | dose: 12.0 mg/kg/injection, schedule: Q01DX009 (ip), vehicle: Klucel (hydroxypropylcellulose) (HPC) 100 % of control

Cc1nc2c([N+](=O)[O-])cc(Cl)cc2[nH]1
inactive: dose: 30.0 mg/kg/injection, schedule: Q01DX005 (ip), vehicle: Klucel (hydroxypropylcellulose) (HPC) 107 % of control | dose: 60.0 mg/kg/injection, schedule: Q01DX005 (ip), vehicle: Klucel (hydroxypropylcellulose) (HPC) 107 % of control | dose: 120.0 mg/kg/injection, schedule: Q01DX005 (ip), vehicle: Klucel (hydroxypropylcellulose) (HPC) 103 % of control

CCCOP(=O)(CCl)OCCC
inactive: [3] 90 % of control | dose: 200.0 mg/kg/injection, schedule: Q01DX009 (ip), vehicle: saline 95 % of control | dose: 400.0 mg/kg/injection, schedule: Q01DX009 (ip), vehicle: saline 109 % of control

CCCCCCC(=O)/C=C/c1ccc(OS(=O)(=O)c2ccccc2)cc1
inactive: [4] 105 % of control | [5] 100 % of control | [6] 101 % of control

CCOc1ccc2nc([NH-])sc2c1.CCOc1ccc2nc([NH-])sc2c1.CCOc1ccc2nc([NH-])sc2c1.CCOc1ccc2nc([NH-])sc2c1.[Cl][Rh][Cl]
inactive: dose: 12.5 mg/kg/injection, schedule: Q01DX001 (ip), vehicle: DMSO 102 % of control | dose: 25.0 mg/kg/injection, schedule: Q01DX001 (ip), vehicle: DMSO 102 % of control and 105 % of control | dose: 50.0 mg/kg/injection, schedule: Q01DX001 (ip), vehicle: DMSO 107 % of control and 94 % of control | dose: 100.0 mg/kg/injection, schedule: Q01DX001 (ip), vehicle: DMSO 113 % of control and 124 % of control and 91 % of control

O=CN(c1ccccc1)c1ccccc1
inactive: dose: 50.0 mg/kg/injection, schedule: Q01DX009 (ip), vehicle: other 95 % of control | [7] 107 % of control | dose: 100.0 mg/kg/injection, schedule: Q01DX009 (ip), vehicle: other 90 % of control | dose: 100.0 mg/kg/injection, schedule: Q04DX003 (ip), vehicle: other 91 % of control | dose: 100.0 mg/kg/injection, schedule: Q04DX003 (ip), vehicle: saline with Tween-80 109 % of control | dose: 200.0 mg/kg/injection, schedule: Q01DX009 (ip), vehicle: other 90 % of control | dose: 200.0 mg/kg/injection, schedule: Q04DX003 (ip), vehicle: other 87 % of control | dose: 200.0 mg/kg/injection, schedule: Q04DX003 (ip), vehicle: saline with Tween-80 110 % of control | dose: 400.0 mg/kg/injection, schedule: Q01DX009 (ip), vehicle: other 100 % of control | dose: 400.0 mg/kg/injection, schedule: Q04DX003 (ip), vehicle: other 87 % of control | dose: 400.0 mg/kg/injection, schedule: Q04DX003 (ip), vehicle: saline with Tween-80 110 % of control | dose: 800.0 mg/kg/injection, schedule: Q04DX003 (ip), vehicle: saline with Tween-80 97 % of control

O=[N+]([O-])C1=CC(=N/Cl)/C=CC/1=N/Cl
inactive: dose: 12.5 mg/kg/injection, schedule: Q01DX005 (ip), vehicle: saline 105 % of control | dose: 25.0 mg/kg/injection, schedule: Q01DX005 (ip), vehicle: saline 100 % of control | dose: 50.0 mg/kg/injection, schedule: Q01DX005 (ip), vehicle: saline 101 % of control and 97 % of control | dose: 100.0 mg/kg/injection, schedule: Q01DX005 (ip), vehicle: saline 106 % of control | dose: 200.0 mg/kg/injection, schedule: Q01DX005 (ip), vehicle: saline 116 % of control

Cc1c(O)c2c(c(O)c1Cc1cccc(CN)c1)C(=O)c1ccccc1C2=O
inactive: dose: 1.56 mg/kg/injection, schedule: Q01DX009 (ip), vehicle: water 91 % of control | [8] 89 % of control

c1ccc2c3c(ccc2c1)OCCOc1ccc2ccccc2c1-3
inactive: [9] 99 % of control | [10] 91 % of control | [11] 90 % of control

CCCCCCOC(=O)c1ccc(OC)cc1
inactive: [4] 104 % of control | [5] 106 % of control | [6] 108 % of control

COc1cccc2c1C(=O)c1c(O)c3c(c(O)c1C2=O)CC(O)(/C(C)=N/NC(=O)CCCCCCCCC(=O)N/N=C(\C)C1(O)Cc2c(O)c4c(c(O)c2C(OC2CC(N)C(O)C(C)O2)C1)C(=O)c1c(OC)cccc1C4=O)CC3OC1CC(N)C(O)C(C)O1 (centres undefined)
inactive: [8] 99 % of control
active: dose: 3.13 mg/kg/injection, schedule: Q01DX009 (ip), vehicle: water 155 % of control | dose: 6.25 mg/kg/injection, schedule: Q01DX009 (ip), vehicle: water 174 % of control | dose: 12.5 mg/kg/injection, schedule: Q01DX009 (ip), vehicle: water 221 % of control

CN1CCCN(C)C1c1cc(Br)ccc1O
inactive: dose: 6.25 mg/kg/injection, schedule: Q01DX009 (ip), vehicle: saline sonified 95 % of control | dose: 12.5 mg/kg/injection, schedule: Q01DX009 (ip), vehicle: saline sonified 90 % of control | dose: 25.0 mg/kg/injection, schedule: Q01DX009 (ip), vehicle: saline sonified 100 % of control

CN1c2ccccc2SC12C(=S)N(c1ccccc1)C(=S)N2c1ccccc1 (centres undefined)
inactive: [9] 98 % of control | [10] 90 % of control | [11] 86 % of control

O=C(O)CSc1nnc2c3ccccc3c3ccccc3c2n1
inactive: [1] 97 % of control | [2] 100 % of control | [4] 100 % of control and 93 % of control | [5] 87 % of control | [6] 101 % of control

OCC1OC(n2ccc3c(NO)ncnc32)C(O)C1O (centres undefined)
inactive: dose: 0.46 mg/kg/injection, schedule: Q01DX005 (ip), vehicle: Klucel (hydroxypropylcellulose) (HPC) 112 % of control

COC(/C=N/OC(=O)c1ccc([N+](=O)[O-])cc1)c1ccccc1 (centres undefined)
inactive: dose: 25.0 mg/kg/injection, schedule: Q04DX003 (ip), vehicle: saline with Tween-80 89 % of control and 92 % of control | [7] 92 % of control and 94 % of control

N#CC(Nc1ccccc1)c1ccc(Cl)cc1 (centres undefined)
inactive: dose: 60.0 mg/kg/injection, schedule: Q01DX005 (ip), vehicle: saline with Tween-80 94 % of control | dose: 120.0 mg/kg/injection, schedule: Q01DX005 (ip), vehicle: saline with Tween-80 94 % of control | dose: 240.0 mg/kg/injection, schedule: Q01DX005 (ip), vehicle: saline with Tween-80 104 % of control
